In brackets after ≈: the same amount, converted by molar mass. Read-outs that look alike come from different tables or passages of the source.
Assays:
[1] = tested on: PANC-1 human pancreatic tumor xenografts; test: PANC-1 xenograft model; format: in vivo, athymic nude mice; settings: PANC-1, 28 mg/kg once every third day for three treatments
Procedure: The anti-tumor efficacy studies of LBI-1103 in the MDA-MB-468 xenograft model as compared to Taxotere® and in the PANC-1 xenograft model as compared to Taxotere® and Gemcytabine were completed recently. The controls and LBI-1103 were injected intravenously once every other day for three treatments except for PANC-1 xenograft animals, where they were treated with Gemcitabine once every third day for three treatments.
In the PANC-1 xenograft models treated with LBI-1103, Taxotere® and Gemcitabine, a significant reduction in tumor weight was observed after the first day of dosing and this trend continued till the end of the study (FIG. 19).

[2] = cited from earlier work
[3] = after irinotecan; cited from earlier work
[4] = in blood; cited from earlier work
[5] = tested on: topoisomerase I purified from human and rodent tumor cell lines; settings: more potent than irinotecan; cited from earlier work
human plasma proteins = settings: cited from earlier work
[6] = cited from earlier work; for solubility in the infusion solution: Jevtana infusion solution

Which “tumor regression, mean tumor weight on last day of study compared to Day 1” value [1] does the source give for `Nc1ccn([C@@H]2O[C@H](CO)[C@@H](O)C2(F)F)c(=O)n1` [Gemcytabine, Gemcitabine] here?
The value was 73%.

With `C/C(=C\c1csc(C)n1)[C@@H]1C[C@@H]2O[C@]2(C)CCC[C@H](C)[C@H](O)[C@@H](C)C(=O)C(C)(C)[C@@H](O)CC(=O)N1` [Ixabepilone] as the compound, how does the solubility in water [2] read?
Its solubility in water is “about 3.5 mg/L”.

Which urinary excretion [3] does the source give for `CCc1c2c(nc3ccc(O[C@@H]4O[C@H](C(=O)O)[C@@H](O)[C@H](O)[C@H]4O)cc13)-c1cc3c(c(=O)n1C2)COC(=O)[C@]3(O)CC` [SN-38 glucuronide] here?
Its urinary excretion is 3%.

Which “bound, mainly to albumin and lymphocytes, also erythrocytes and neutrophils” value [4] does the source give for `CCc1c2c(nc3ccc(O)cc13)-c1cc3c(c(=O)n1C2)COC(=O)[C@]3(O)CC` [SN-38] here?
Its value is “at least 99%”.

What about the “potency as inhibitor of topoisomerase I relative to irinotecan” value [5] of the same compound?
The value was “approximately 1000 times”.

What about the urinary excretion [3] of the same compound?
Its urinary excretion is < 1%.

What about the “plasma protein binding (bound)” value (human plasma proteins; SN-38: human plasma proteins, mainly albumin) of the same compound?
Its value is “approximately 95%”.

And the “binding to plasma proteins” value (human plasma proteins; adults and pediatric patients, independent of serum albumin levels)?
Its value is 94-96%.

Which solubility in water [2] does the source give for `CO[C@H]1C(=O)[C@]2(C)[C@@H](OC)C[C@H]3OC[C@@]3(OC(C)=O)[C@H]2[C@H](OC(=O)c2ccccc2)[C@]2(O)C[C@H](OC(=O)[C@H](O)[C@@H](NC(=O)OC(C)(C)C)c3ccccc3)C(C)=C1C2(C)C` [cabazitaxel] here?
Its solubility in water is “about 8 mg/L”.

And the “solubility in the infusion solution” value ([6]; 5° C.)?
The value was 0.08 mg/mL (≈ 95.7 µM).

What about the “solubility in the infusion solution” value ([6]; 25° C.) of the same compound?
The value was 0.06 mg/mL (≈ 71.8 µM).

And the “solubility in the premix” value ([6]; Jevtana premix solution (cabazitaxel concentration 10 mg/mL))?
The value was 3.44 mg/mL (≈ 4120 µM).

With `CC(=O)O[C@@]12CO[C@@H]1C[C@H](O)[C@@]1(C)C(=O)[C@H](O)C3=C(C)[C@@H](OC(=O)[C@H](O)[C@@H](NC(=O)OC(C)(C)C)c4ccccc4)C[C@@](O)([C@@H](OC(=O)c4ccccc4)[C@H]21)C3(C)C` [docetaxel] as the compound, how does the solubility in water [2] read?
Its solubility in water is “about 14 mg/L”.

With `CCc1c2c(nc3ccc(OC(=O)N4CCC(N5CCCCC5)CC4)cc13)-c1cc3c(c(=O)n1C2)COC(=O)[C@]3(O)CC` [irinotecan] as the compound, how does the “bound to and/or localized in erythrocytes” value [4] read?
Its value is 80%.

Which solubility in water [2] does the source give for `CC(=O)O[C@H]1C(=O)[C@@]2(C)[C@H]([C@H](OC(=O)c3ccccc3)[C@]3(O)C[C@H](OC(=O)[C@H](O)[C@@H](NC(=O)c4ccccc4)c4ccccc4)C(C)=C1C3(C)C)[C@]1(OC(C)=O)CO[C@@H]1C[C@@H]2O` [paclitaxel] here?
The solubility in water was “about 0.4 mg/L”.
